Tests used:
Test in all cases: relative viability (nuclei count vs DMSO), 5 days (fraction); higher = more cells survive
[1] = compound: COc1cc2/c(=N/c3ccc(Br)cc3F)nc[nH]c2cc1OCC1CCN(C)CC1 [Vandetanib] + CC(=O)c1c(C)c2cnc(Nc3ccc(N4CCNCC4)cn3)nc2n(C2CCCC2)c1=O [Palbociclib] (partner 0.5 µM)
Method in brief: (§1)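 Lung cancer cell lines in 1536-well plates got either a single drug or a fixed anchor-drug dose together with five library-drug doses (not always all listed) in √10 steps, by pin tool, on the day after seeding. Nuclei were counted after 5 days, and relative viability is the treated-to-vehicle ratio of nuclei counts. Values are medians of duplicate plates.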

[2] = compound: COc1cc(N2CCC(N3CCN(C)CC3)CC2)ccc1Nc1ncc(Cl)c(Nc2ccccc2S(=O)(=O)C(C)C)n1 [NVP-TAE684] + N=C(N)NC(=N)NCCc1ccccc1 [Phenformin] (partner 250 µM)
Method in brief: as §1

[3] = compound: C#Cc1cccc(Nc2ncnc3cc(OC)c(OCCCCCCC(=O)NO)cc23)c1 [CUDC-101] + CC(=O)Nc1cccc(-n2c(=O)n(C3CC3)c(=O)c3c(Nc4ccc(I)cc4F)n(C)c(=O)c(C)c32)c1 [Trametinib] (partner 0.02 µM)
Method in brief: as §1

[4] = compound: C#Cc1cccc(Nc2ncnc3cc(OC)c(OCCCCCCC(=O)NO)cc23)c1 [CUDC-101] + CCNC(=O)c1noc(-c2cc(C(C)C)c(O)cc2O)c1-c1ccc(CN2CCOCC2)cc1 [Luminespib] (partner 0.01 µM)
Method in brief: as §1

## UMC-11
[1]; first compound 0.02 µM
  relative viability: 0.345
[1]; first compound 0.06325 µM
  relative viability: 0.336
[1]; first compound 0.2 µM
  relative viability: 0.321
[1]; first compound 0.6325 µM
  relative viability: 0.348
[1]; first compound 2 µM
  relative viability: 0.345
[2]; first compound 0.2 µM
  relative viability: 0.355
[2]; first compound 0.6325 µM
  relative viability: 0.32
[2]; first compound 2 µM
  relative viability: 0.268
[3]; first compound 0.01 µM
  relative viability: 0.727
[3]; first compound 0.03162 µM
  relative viability: 0.761
[3]; first compound 0.1 µM
  relative viability: 0.578
[3]; first compound 0.3162 µM
  relative viability: 0.399
[3]; first compound 1 µM
  relative viability: 0.127
[4]; first compound 0.01 µM
  relative viability: 1.22
[4]; first compound 0.03162 µM
  relative viability: 0.879
[4]; first compound 0.1 µM
  relative viability: 1.03
[4]; first compound 0.3162 µM
  relative viability: 0.43
[4]; first compound 1 µM
  relative viability: 0.165

From the supplement of paper PMC10307832
